Source: ChEMBL document CHEMBL3045199, “Synthesis of some (E)-6-[2-(furan-2-yl)ethenyl]-1,2,4-triazin-5-ones and their biological evaluation as antitumor agents” (2013)

Key:
Format in all cases: functional
RPMI-8226 = assay: Cytotoxicity against Homo sapiens (human) RPMI8226 cells after 48 hr by SRB assay; conditions: RPMI-8226, 48 h
OVCAR-4 = assay: Cytotoxicity against Homo sapiens (human) OVCAR4 cells after 48 hr by SRB assay; conditions: OVCAR-4, 48 h
HL-60(TB) = assay: Cytotoxicity against Homo sapiens (human) HL-60(TB) cells after 48 hr by SRB assay; conditions: HL-60, 48 h
Malme-3M = assay: Cytotoxicity against Homo sapiens (human) MALME-3M cells after 48 hr by SRB assay
TK-10 = assay: Cytotoxicity against Homo sapiens (human) TK10 cells after 48 hr by SRB assay; conditions: TK-10, 48 h
CAKI-1 = assay: Cytotoxicity against Homo sapiens (human) Caki1 cells after 48 hr by SRB assay; conditions: CAKI-1, 48 h
M14 = assay: Cytotoxicity against Homo sapiens (human) M14 cells after 48 hr by SRB assay; conditions: M14, 48 h
OVCAR-8 = assay: Cytotoxicity against Homo sapiens (human) OVCAR8 cells after 48 hr by SRB assay; conditions: OVCAR-8, 48 h
MDA-MB-231 = assay: Cytotoxicity against Homo sapiens (human) MDA-MB-231 cells after 48 hr by SRB assay; conditions: MDA-MB-231, 48 h
SW-620 = assay: Cytotoxicity against Homo sapiens (human) SW620 cells after 48 hr by SRB assay; conditions: SW-620, 48 h
NCI-H226 = assay: Cytotoxicity against Homo sapiens (human) NCI-H226 cells after 48 hr by SRB assay; conditions: NCI-H226, 48 h
HCT-116 = assay: Cytotoxicity against Homo sapiens (human) HCT116 cells after 48 hr by SRB assay; conditions: HCT-116, 48 h
T47D = assay: Cytotoxicity against Homo sapiens (human) T47D cells after 48 hr by SRB assay
NCI-H322M = assay: Cytotoxicity against Homo sapiens (human) NCI-H322M cells after 48 hr by SRB assay
PC-3 = assay: Cytotoxicity against Homo sapiens (human) PC3 cells after 48 hr by SRB assay; conditions: PC-3, 48 h
SK-OV-3 = assay: Cytotoxicity against Homo sapiens (human) SKOV3 cells after 48 hr by SRB assay; conditions: SK-OV-3, 48 h
UO-31 = assay: Cytotoxicity against Homo sapiens (human) UO31 cells after 48 hr by SRB assay; conditions: UO-31, 48 h
HCT-15 = assay: Cytotoxicity against Homo sapiens (human) HCT15 cells after 48 hr by SRB assay; conditions: HCT-15, 48 h
LOX IMVI = assay: Cytotoxicity against Homo sapiens (human) LOXIMVI cells after 48 hr by SRB assay
HOP-92 = assay: Cytotoxicity against Homo sapiens (human) HOP92 cells after 48 hr by SRB assay; conditions: HOP-92, 48 h
BT-549 = assay: Cytotoxicity against Homo sapiens (human) BT549 cells after 48 hr by SRB assay; conditions: BT-549, 48 h
DU-145 = assay: Cytotoxicity against Homo sapiens (human) DU145 cells after 48 hr by SRB assay; conditions: DU-145, 48 h
RXF 393 = assay: Cytotoxicity against Homo sapiens (human) RXF393 cells after 48 hr by SRB assay; conditions: RXF 393, 48 h
SK-MEL-2 = assay: Cytotoxicity against Homo sapiens (human) SK-MEL-2 cells after 48 hr by SRB assay; conditions: SK-MEL-2, 48 h
MOLT-4 = assay: Cytotoxicity against Homo sapiens (human) MOLT4 cells after 48 hr by SRB assay; conditions: MOLT-4, 48 h
UACC-257 = assay: Cytotoxicity against Homo sapiens (human) UACC257 cells after 48 hr by SRB assay; conditions: UACC-257, 48 h
OVCAR-5 = assay: Cytotoxicity against Homo sapiens (human) OVCAR5 cells after 48 hr by SRB assay; conditions: OVCAR-5, 48 h
HCC 2998 = assay: Cytotoxicity against Homo sapiens (human) HCC2998 cells after 48 hr by SRB assay; conditions: HCC 2998, 48 h
U-251 = assay: Cytotoxicity against Homo sapiens (human) U251 cells after 48 hr by SRB assay; conditions: U-251, 48 h
SN12C = assay: Cytotoxicity against Homo sapiens (human) SN12C cells after 48 hr by SRB assay
NCI-H23 = assay: Cytotoxicity against Homo sapiens (human) NCI-H23 cells after 48 hr by SRB assay; conditions: NCI-H23, 48 h
HOP-62 = assay: Cytotoxicity against Homo sapiens (human) HOP62 cells after 48 hr by SRB assay; conditions: HOP-62, 48 h
ACHN = assay: Cytotoxicity against Homo sapiens (human) ACHN cells after 48 hr by SRB assay
A498 = assay: Cytotoxicity against Homo sapiens (human) A498 cells after 48 hr by SRB assay; conditions: A498, 48 h
[1] = read-out: LC50 (the source's name)

SMILES: Nc1cc(-c2ccc(Cl)cc2)nn1-c1nc(=O)c(/C=C/c2ccco2)n[nH]1
- LC50 (RPMI-8226): > 100 µM
- TGI (RPMI-8226): 23.2 µM
- GI50 (RPMI-8226; read-out: GI50): 3.03 µM
- GI50 (RPMI-8226; read-out: pGI50 (converted)): 3.02 µM
- LC50 (OVCAR-4): > 100 µM
- TGI (OVCAR-4): 28.8 µM
- GI50 (OVCAR-4; read-out: GI50): 3.45 µM
- GI50 (OVCAR-4; read-out: pGI50 (converted)): 3.47 µM
- LC50 (HL-60(TB)): > 100 µM
- TGI (HL-60(TB)): 8.19 µM
- GI50 (HL-60(TB); read-out: GI50): 2.83 µM
- GI50 (HL-60(TB); read-out: pGI50 (converted)): 2.82 µM
- LC50 (Malme-3M): > 100 µM
- TGI (Malme-3M): 53.1 µM
- GI50 (Malme-3M; read-out: GI50): 11 µM
- GI50 (Malme-3M; read-out: pGI50 (converted)): 11 µM
- LC50 (TK-10): > 100 µM
- TGI (TK-10): 23.1 µM
- GI50 (TK-10; read-out: GI50): 3.64 µM
- GI50 (TK-10; read-out: pGI50 (converted)): 3.63 µM
- LC50 (CAKI-1): > 100 µM
- TGI (CAKI-1): 4.6 µM
- GI50 (CAKI-1; read-out: GI50): 0.37 µM
- GI50 (CAKI-1; read-out: pGI50 (converted)): 0.372 µM
- LC50 (M14): > 100 µM
- TGI (M14): 31.7 µM
- GI50 (M14; read-out: GI50): 2.27 µM
- GI50 (M14; read-out: pGI50 (converted)): 2.29 µM
- TGI (OVCAR-8): 65.8 µM
- GI50 (OVCAR-8; read-out: GI50): 4.47 µM
- CC50 (OVCAR-8; [1]): > 100 µM
- GI50 (OVCAR-8; read-out: pGI50 (converted)): 4.47 µM
- LC50 (lethal concentration, 50%) (MDA-MB-231): > 100 µM
- TGI (MDA-MB-231): > 100 µM
- GI50 (MDA-MB-231; read-out: GI50): 13.9 µM
- GI50 (MDA-MB-231; read-out: pGI50 (converted)): 13.8 µM
- TGI (SW-620): > 100 µM
- GI50 (SW-620; read-out: GI50): 5.02 µM
- CC50 (SW-620; [1]): > 100 µM
- GI50 (SW-620; read-out: pGI50 (converted)): 5.01 µM
- LC50 (lethal concentration, 50% cell kill) (NCI-H226): > 100 µM
- TGI (NCI-H226): 75.6 µM
- GI50 (NCI-H226; read-out: GI50): 12.2 µM
- GI50 (NCI-H226; read-out: pGI50 (converted)): 12.3 µM
- TGI (HCT-116): 15.6 µM
- GI50 (HCT-116; read-out: GI50): 2.92 µM
- CC50 (HCT-116; [1]): > 100 µM
- GI50 (HCT-116; read-out: pGI50 (converted)): 2.88 µM
- LC50 (T47D): > 100 µM
- TGI (T47D): 44.2 µM
- GI50 (T47D; read-out: GI50): 4.37 µM
- GI50 (T47D; read-out: pGI50 (converted)): 4.37 µM
- TGI (NCI-H322M): 38.2 µM
- GI50 (NCI-H322M; read-out: GI50): 1.47 µM
- CC50 (NCI-H322M; [1]): > 100 µM
- GI50 (NCI-H322M; read-out: pGI50 (converted)): 1.48 µM
- LC50 (50% lethal concentration) (PC-3): > 100 µM
- TGI (PC-3): 56.2 µM
- GI50 (PC-3; read-out: GI50): 5.6 µM
- GI50 (PC-3; read-out: pGI50 (converted)): 5.62 µM
- LC50 (SK-OV-3): > 100 µM
- TGI (SK-OV-3): 7.43 µM
- GI50 (SK-OV-3; read-out: GI50): 5.58 µM
- GI50 (SK-OV-3; read-out: pGI50 (converted)): 5.62 µM
- TGI (UO-31): 13.7 µM
- GI50 (UO-31; read-out: GI50): 1.63 µM
- CC50 (UO-31; [1]): > 100 µM
- GI50 (UO-31; read-out: pGI50 (converted)): 1.62 µM
- TGI (HCT-15): > 100 µM
- GI50 (HCT-15; read-out: GI50): 1.89 µM
- CC50 (HCT-15; [1]): > 100 µM
- GI50 (HCT-15; read-out: pGI50 (converted)): 1.91 µM
- TGI (LOX IMVI): 73.4 µM
- GI50 (LOX IMVI; read-out: GI50): 6.69 µM
- CC50 (LOX IMVI; [1]): > 100 µM
- GI50 (LOX IMVI; read-out: pGI50 (converted)): 6.76 µM
- LC50 (HOP-92): > 100 µM
- TGI (HOP-92): 9.28 µM
- GI50 (HOP-92; read-out: GI50): 1.61 µM
- GI50 (HOP-92; read-out: pGI50 (converted)): 1.62 µM
- TGI (BT-549): 43.8 µM
- GI50 (BT-549; read-out: GI50): 4.42 µM
- CC50 (BT-549; [1]): > 100 µM
- GI50 (BT-549; read-out: pGI50 (converted)): 4.47 µM
- LC50 (DU-145): 55.4 µM
- TGI (DU-145): 18.3 µM
- GI50 (DU-145; read-out: GI50): 3.01 µM
- GI50 (DU-145; read-out: pGI50 (converted)): 3.02 µM
- LC50 (RXF 393): > 100 µM
- TGI (RXF 393): 54.9 µM
- GI50 (RXF 393; read-out: GI50): 13.1 µM
- GI50 (RXF 393; read-out: pGI50 (converted)): 13.2 µM
- TGI (SK-MEL-2): 77.9 µM
- GI50 (SK-MEL-2; read-out: GI50): 15.6 µM
- CC50 (SK-MEL-2; [1]): > 100 µM
- GI50 (SK-MEL-2; read-out: pGI50 (converted)): 15.5 µM
- TGI (MOLT-4): 18.5 µM
- GI50 (MOLT-4; read-out: GI50): 2.01 µM
- CC50 (MOLT-4; [1]): > 100 µM
- GI50 (MOLT-4; read-out: pGI50 (converted)): 2 µM
- LC50 (UACC-257): > 100 µM
- TGI (UACC-257): 71.8 µM
- GI50 (UACC-257; read-out: GI50): 6.59 µM
- GI50 (UACC-257; read-out: pGI50 (converted)): 6.61 µM
- LC50 (50% lethal concentration) (OVCAR-5): > 100 µM
- TGI (OVCAR-5): 82 µM
- GI50 (OVCAR-5; read-out: GI50): 5.49 µM
- GI50 (OVCAR-5; read-out: pGI50 (converted)): 5.5 µM
- TGI (HCC 2998): > 100 µM
- GI50 (HCC 2998; read-out: GI50): 5.59 µM
- CC50 (HCC 2998; [1]): > 100 µM
- GI50 (HCC 2998; read-out: pGI50 (converted)): 5.62 µM
- TGI (U-251): 84.8 µM
- GI50 (U-251; read-out: GI50): 4.47 µM
- CC50 (U-251; [1]): > 100 µM
- GI50 (U-251; read-out: pGI50 (converted)): 4.47 µM
- TGI (SN12C): > 100 µM
- GI50 (SN12C; read-out: GI50): 18.7 µM
- CC50 (SN12C; [1]): > 100 µM
- GI50 (SN12C; read-out: pGI50 (converted)): 18.6 µM
- TGI (NCI-H23): 53.9 µM
- GI50 (NCI-H23; read-out: GI50): 5.13 µM
- CC50 (NCI-H23; [1]): > 100 µM
- GI50 (NCI-H23; read-out: pGI50 (converted)): 5.13 µM
- LC50 (concentration killing 50% of cells) (HOP-62): > 100 µM
- TGI (HOP-62): 76.8 µM
- GI50 (HOP-62; read-out: GI50): 5.77 µM
- GI50 (HOP-62; read-out: pGI50 (converted)): 5.75 µM
- LC50 (ACHN): > 100 µM
- TGI (ACHN): 24.8 µM
- GI50 (ACHN; read-out: GI50): 3.8 µM
- GI50 (ACHN; read-out: pGI50 (converted)): 3.8 µM
- LC50 (A498): > 100 µM
- TGI (A498): 6.62 µM
- GI50 (A498; read-out: GI50): 1.62 µM
- GI50 (A498; read-out: pGI50 (converted)): 1.62 µM
